Counter-ions that a name gives are not always drawn.

The target of one series is T1, human MC3 receptor (Homo sapiens, UniProt P41968).
T1 construct: expressed in transfected cells; host or cells: CHO(dhfr-)
The series is described as follows: Functional agonist assay: cAMP formation in CHO(dhfr-) cells. In kind it is cell-based. The conditions noted are these: 1 hour incubation, read-out: EC50 with respect to the MC3 receptor. As to the method:
(§1) A functional assay is used to differentiate between the agonist activity and the antagonist activity. For this, the formation of cyclic adenosine monophosphate (cAMP) generated by activation of the MC3 receptor or of the MC4 receptor is assayed.
CHO(dhfr-) cells expressing the human MC3 receptor are seeded into MEM Eagle culture medium (Sigma) containing 10% of dialysed calf serum, 1% L-glutamine, 1% sodium pyruvate, 20 mg/500 ml L-proline, 0.3 mg/ml Geneticin and 0.5% PenStrep, these products being provided by Gibco/BR1, except for the dialysed calf serum (Cambrex) and the L-proline (Sigma).
(§2) The compounds to be tested (diluted in 10% DMSO), in an amount of 10 μl at a concentration of 10 times the final concentration, are added to the plates of cells (final volume=100 μl/well). After incubation for 1 hour (37° C., 5% CO2), the amount of cAMP is assayed using Tropix kits (Appelera) according to the supplier's documentation. The intrinsic activity of the compounds is calculated by comparing the stimulation of cAMP by these compounds to the stimulation induced by 30 nM of NDP[…]MSH (maximum of 100%). The EC50 value for the compounds corresponds to the concentration which produces 50% of the maximum stimulation obtained with this compound.
A general note: Changes in cAMP serve as a functional read-out for many G protein-coupled receptors.

Series [1] concerns the target T2, human MC4 receptor (Homo sapiens, UniProt P32245).
T2 construct: host or cells: CHO-K1
In words: Functional agonist assay: cAMP formation in CHO-K1 cells. In kind it is cell-based. The conditions noted are these: 1 hour incubation, read-out: EC50 with respect to the MC4 receptor. The protocol: as §1
CHO-K1 cells, expressing the human MC4 receptor at a moderate density (Euroscreen), are seeded into DMEM/Nutrient Mix F12 culture medium (Gibco/BR1) containing 10% of foetal calf serum, 0.5% sodium pyruvate, 1% L-glutamine, 1% non-essential amino acids, 200 mg/l hygromycin B and 0.5% PenStrep, these products being provided by Gibco/BR1, except the calf serum (Biowhittaker) and hygromycin B (Sigma).
as §2

Series [2] has as its target T2, human MC4 receptor. The series is described as follows: Affinity assay: displacement of [125I]-[Nle4,D-Phe7]-α-MSH binding to membranes of CHO-K1 cells (SPA). The note with it: radioligand displacement, 100 pM [125I]-NDP-α-MSH, 6 h; read-out: IC50 with respect to the MC4 receptor. As to the method:
This affinity assay is carried out by measuring the binding of [^125I]-[Nle^4-D-Phe^7]-[…]-MSH to cell membranes. The displacement of this radioligand is used to identify inhibitors of the specific binding to recombinant melanocortin receptors.
For this assay, membranes prepared from CHO-K1 cells expressing the human MC4 receptor at high density (Euroscreen) or membranes, that were purchased (Perkin Elmer Life Sciences, Receptor Biology), of HEK-293 cells expressing hMC3 receptors were used. CHO-K1 cells transfected with the hMC4 receptor gene (Euroscreen) are seeded into DMEM/Nutrient Mix F12 culture medium containing 10% foetal calf serum (Biowhittaker), 1% sodium pyruvate, 1% L-glutamine, 1% non-essential amino acids, 0.4 mg/ml geneticin (G418) and 0.5% PenStrep, these products being provided by Gibco/BR1, except the calf serum. At 80% confluency, the cells are scraped off and the cell pellets are frozen at −80° C. […]
[^125I]-[Nle^4, D-Phe^7]-[…]-MSH is diluted in binding buffer+0.2% BSA. […] The nonspecific binding is defined by NDP-[…]MSH at 10^−7 M. The total binding is measured by the number of counts per minute in the presence of the radioligand alone. […]
Background: In a radioligand displacement assay an active substance lowers the binding of a labelled ligand.

T2 sequence (P32245 whole entry): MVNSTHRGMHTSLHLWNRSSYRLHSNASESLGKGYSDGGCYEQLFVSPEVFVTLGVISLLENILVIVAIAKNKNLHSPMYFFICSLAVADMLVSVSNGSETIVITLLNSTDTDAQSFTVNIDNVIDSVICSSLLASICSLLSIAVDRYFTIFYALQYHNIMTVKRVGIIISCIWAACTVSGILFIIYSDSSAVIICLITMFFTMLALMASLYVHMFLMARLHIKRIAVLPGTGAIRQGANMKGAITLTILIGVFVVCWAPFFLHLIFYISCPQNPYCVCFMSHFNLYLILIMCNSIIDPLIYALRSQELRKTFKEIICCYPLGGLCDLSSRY
T1 sequence (P41968 whole entry): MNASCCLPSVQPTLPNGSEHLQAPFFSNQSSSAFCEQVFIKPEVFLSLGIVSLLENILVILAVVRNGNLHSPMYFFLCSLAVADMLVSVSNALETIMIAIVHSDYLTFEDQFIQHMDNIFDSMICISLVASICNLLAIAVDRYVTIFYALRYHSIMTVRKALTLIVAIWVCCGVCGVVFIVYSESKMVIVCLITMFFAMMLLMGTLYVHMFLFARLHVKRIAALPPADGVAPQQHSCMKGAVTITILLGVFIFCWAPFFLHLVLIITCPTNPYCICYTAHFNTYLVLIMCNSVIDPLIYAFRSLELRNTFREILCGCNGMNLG

Turning to `CCN(CC)C(=O)N(C1CCCCC1)C1CCN(C(=O)[C@@H](Cc2ccc(Cl)cc2)NC2CCNCC2)CC1` (as salt: HCl) [Compound 1, N-[1-(4-chloro-N-piperidin-4-yl-D-phenylalanyl)piperidin-4-yl]-N-cyclohexyl-N′,N′-diethylurea], the melting point (as a rule, the temperature of the solid-liquid transition) was greater than 220 °C.
Same read-out and setting: next, `CCN(CC)C(=O)N(C1CCCCC1)C1CCN(C(=O)[C@@H](Cc2ccc(Cl)cc2)NC2CCC(N)CC2)CC1` (stereo partly drawn) (as salt: HCl) [Compound 2, N-{1-[N-(4-aminocyclohexyl)-4-chloro-D-phenylalanyl]piperidin-4-yl}-N-cyclohexyl-N′,N′-diethylurea hydrochloride]: 195 °C.
In the case of `CCN(CC)C(=O)N(C1CCCCC1)C1CCN(C(=O)[C@@H](Cc2ccc(Cl)cc2)NC2CCNCC2)CC1` [Compound 1, N-[1-(4-chloro-N-piperidin-4-yl-D-phenylalanyl)piperidin-4-yl]-N-cyclohexyl-N′,N′-diethylurea], the EC50 (commonly the concentration giving half of the maximal effect) at human MC3 receptor was determined as 590 nM; at human MC4 receptor [1], 80 nM.
Regarding `CCN(CC)C(=O)N(C1CCCCC1)C1CCN(C(=O)[C@@H](Cc2ccc(Cl)cc2)NC2CCC(N)CC2)CC1` (stereo partly drawn) [Compound 2, N-{1-[N-(4-aminocyclohexyl)-4-chloro-D-phenylalanyl]piperidin-4-yl}-N-cyclohexyl-N′,N′-diethylurea hydrochloride], the IC50 – broadly, the concentration needed to halve the response being measured – on human MC4 receptor [2] came to 300 nM. For the same molecule, the values for the EC50 at human MC3 receptor and on human MC4 receptor [1] were 370 nM and 30 nM, respectively.
